Measured values from publication PMC4476799, “Englerin A Agonizes the TRPC4/C5 Cation Channels to Inhibit Tumor Cell Line Proliferation” (PLoS ONE, 2015).
pEC50, pIC50: −log10 of the molar value. Read-outs that look alike come from different tables or passages of the source.

Tested on: cancer cell lines from the cancer cell line encyclopedia (CCLE)
Experiment: Cell line profiling (CLiP) proliferation experiment
Type: cell-based
Conditions: for pIC50: read-out: Crossing Point; for pEC50: read-out: Inflection Point
Protocol: Compound profiling experiment and data analysis was performed as previously described. Data was imported and plotted using the Tibco Spotfire DXP application. Lines were categorized as sensitive, intermediate and refractory as follows: Amax<-40 & Inflection Point <2 ~ Sensitive, Amax>-20 & Inflection Point >10 ~ Refractory, all else were called Intermediate. Cancer Cell line HG-U133 Plus 2 data was processed and normalized as described. […] Five sets of refractory cell lines were generated from the pool of refractory cell lines trying to match the lineage composition of the set of sensitive cell lines. The limma package was used as previously described to perform the statistical comparison.

[1] = HT115, cell line HT115, large_intestine
[2] = Homo sapiens, 8-MG-BA, cell line 8-MG-BA, central_nervous_system, astrocytoma_Grade_IV
[3] = Homo sapiens, 769-P, cell line 769-P, kidney, clear_cell_renal_cell_carcinoma
[4] = Homo sapiens, A101D, A101D cells
[5] = Homo sapiens, A101D, cell line A101D, skin, NS
[6] = Homo sapiens, A204, cell line A-204, soft_tissue, NS
[7] = Homo sapiens, A2780, cell line A2780, ovary, adenocarcinoma
[8] = Homo sapiens, ABC-1, ABC-1 cells
[9] = Homo sapiens, ABC-1, cell line ABC-1, lung, non_small_cell_carcinoma
[10] = Homo sapiens, AMO1, cell line AMO-1, haematopoietic_and_lymphoid_tissue, plasma_cell_myeloma
[11] = Homo sapiens, BFTC-909, cell line BFTC-909, kidney, NS
[12] = Homo sapiens, BL-41, cell line BL-41, haematopoietic_and_lymphoid_tissue, Burkitt_lymphoma
[13] = Homo sapiens, BV-173, cell line BV-173, haematopoietic_and_lymphoid_tissue, blast_phase_chronic_myeloid_leukaemia
[14] = Homo sapiens, CAKI-1, cell line Caki-1, kidney, clear_cell_renal_cell_carcinoma
[15] = Homo sapiens, CAL-54, CAL-54, kidney, renal_cell_carcinoma
[16] = Homo sapiens, CAL-54, CAL-54 cells
[17] = Homo sapiens, CAL-85-1, CAL-85-1, breast, NS
[18] = Homo sapiens, CAL-85-1, CAL-85-1 cells
[19] = Homo sapiens, CAL-120, cell line CAL-120, breast, NS
[20] = Homo sapiens, CAPAN-1, Capan-1, pancreas, ductal_carcinoma
[21] = Homo sapiens, CFPAC-1, CFPAC-1, pancreas, ductal_carcinoma

CC(C)[C@@]12C[C@@H](O)[C@@](C)(O1)[C@@H]1CC[C@@H](C)[C@H]1[C@@H]2OC(=O)/C=C/c1ccccc1 [Englerin B]
7.00: pEC50 [11]
4.72: pIC50 [1] | pEC50 [4] | pEC50 [5]
4.90: pIC50 (Homo sapiens, A498, cell line A-498, kidney, renal_cell_carcinoma) | pEC50 (Homo sapiens, BV-173, BV-173 cells) | pEC50 [13] | pEC50 [21]
4.65: pIC50 [19]
4.64: pIC50 (Homo sapiens, A549, cell line A549, lung, adenocarcinoma)
4.58: pIC50 [2] | pIC50 (Homo sapiens, BXPC-3, cell line BxPC-3, pancreas, ductal_carcinoma)
4.83: pIC50 (Homo sapiens, A253, cell line A-253, salivary_gland, mucoepidermoid_carcinoma) | pIC50 [7]
< 4.52: pIC50 (HEC-50B, cell line HEC-50B) | pIC50 (HEC-251, cell line HEC-251, endometrium) | pIC50 (HEC-251, cell line HEC-251) | pIC50 (HEY A8, cell line Hey-A8, ovary) | pIC50 (HEY A8, cell line Hey-A8) | pIC50 (Homo sapiens, 769-P, 769-P (kidney)) | pIC50 [3] | pIC50 (Homo sapiens, 786-0, cell line 786-O, kidney, clear_cell_renal_cell_carcinoma) | pIC50 (Homo sapiens, 786-0, cell line 786-O) | pIC50 (Homo sapiens, 1321-N1, cell line 1321N1 (central_nervous_system, astrocytoma)) | pIC50 (Homo sapiens, 1321-N1, cell line 1321N1, central_nervous_system, astrocytoma) | pIC50 (Homo sapiens, 8305C, 8305C (thyroid)) | pIC50 (Homo sapiens, 8305C, cell line 8305C, thyroid, anaplastic_carcinoma) | pIC50 [4] | pIC50 [5] | pIC50 (Homo sapiens, A 172, cell line A172, central_nervous_system, astrocytoma_Grade_IV) | pIC50 (Homo sapiens, A 172, cell line A172) | pIC50 (Homo sapiens, A204, cell line A-204) | pIC50 [6] | pIC50 (Homo sapiens, A673, A-673 cells) | pIC50 (Homo sapiens, A673, cell line A-673, bone, NS) | pIC50 (Homo sapiens, A-375, A-375 cells) | pIC50 (Homo sapiens, A-375, cell line A-375, skin, NS) | pIC50 [8] | pIC50 [9] | pIC50 (Homo sapiens, ACHN, ACHN cells) | pIC50 (Homo sapiens, ACHN, cell line ACHN, kidney, renal_cell_carcinoma) | pIC50 [11] | pIC50 (Homo sapiens, BFTC-909, cell line BFTC-909) | pIC50 (Homo sapiens, BT-20, BT-20 cells) | pIC50 (Homo sapiens, BT-20, cell line BT-20, breast, ductal_carcinoma) | pIC50 (Homo sapiens, C32, C32 cells) | pIC50 (Homo sapiens, CAKI-1, Caki-1 (kidney)) | pIC50 [14] | pIC50 (Homo sapiens, CAKI-2, Caki-2 (kidney)) | pIC50 (Homo sapiens, CAKI-2, cell line Caki-2, kidney, clear_cell_renal_cell_carcinoma) | pIC50 (Homo sapiens, CAL-51, CAL-51 cells) | pIC50 (Homo sapiens, CAL-51, cell line CAL-51, breast, NS) | pIC50 [15] | pIC50 [16] | pIC50 [17] | pIC50 [18] | pIC50 (Homo sapiens, CAMA-1, CAMA-1 (breast)) | pIC50 (Homo sapiens, CAMA-1, CAMA-1, breast, NS) | pIC50 (Homo sapiens, CAPAN-1, Capan-1 (pancreas)) | pIC50 [20] | pIC50 (Homo sapiens, CCRF-CEM, CCRF-CEM cells) | pIC50 (Homo sapiens, CCRF-CEM, haematopoietic_and_lymphoid_tissue, acute_lymphoblastic_T_cell_leukaemia)
4.76: pEC50 [6] | pIC50 [12]
4.78: pEC50 (Homo sapiens, BL-41, BL-41 cells) | pEC50 [12]
5.47: pEC50 [20]
4.80: pEC50 [2] | pEC50 [15] | pEC50 [16]
4.69: pEC50 [3] | pIC50 (Homo sapiens, AU565, cell line AU565, breast, NS)
4.91: pEC50 [1] | pEC50 (Homo sapiens, AMO1, AMO-1 cells) | pEC50 [10]
4.92: pEC50 (Homo sapiens, A2780, A2780 cells) | pEC50 [7]
4.71: pIC50 (Homo sapiens, BT-549, cell line BT-549, breast, ductal_carcinoma)
4.56: pIC50 (Homo sapiens, 22Rv1, cell line 22Rv1, prostate, NS) | pEC50 [17] | pEC50 [18]
4.88: pIC50 [10] | pEC50 [14]
4.73: pIC50 (Homo sapiens, A2058, cell line A2058, skin, NS)
4.63: pEC50 [8] | pEC50 [9]
4.89: pIC50 [13]
4.94: pEC50 (Homo sapiens, CAL-120, CAL-120 cells) | pEC50 [19]
4.68: pIC50 (Homo sapiens, AN3-CA, cell line AN3 CA, endometrium, adenocarcinoma) | pIC50 (Homo sapiens, AN3-CA, cell line AN3 CA)
4.53: pIC50 [21]
